Active and inactive are the calls of the source. No cut-off for these calls is given here.
Columns and labels:
MDA-MB-231 [1] = test: Induction of apoptosis in human MDA-MB-231 cells assessed as viable cells at 2.5 uM incubated for 48 hrs by Annexin V-FITC/PI staining based flow cytometric analysis (reference value: 97.63%); format: functional; conditions: read-out: Activity
BXPC-3 [2] = test: Inhibition of cell proliferation in human BXPC-3 cells assessed as decrease in c-Myc mRNA level at 5 uM incubated for 48 hrs by qRT-PCR analysis; format: functional, cell-based
[3] = target: Bromodomain testis-specific protein (Homo sapiens, UniProt Q58F21); test: Inhibition of BRDT-BD1 (unknown origin) by HTRF analysis
MDA-MB-231 [4] = test: Antiproliferative activity against human MDA-MB-231 cells assessed as inhibition of cell proliferation incubated for 6 days by CCK8 assay; format: functional, cell-based; conditions: time 6.0 day
[5] = Cmax in ICR mouse at 60 mg/kg, ip measured upto 24 hrs by LC-MS/MS analysis; format: ADME, organism-based; design: time < 24 hrs, dose 60 mg/kg, route ip; conditions: in vivo
[6] = AUC(0 to t) in ICR mouse at 60 mg/kg, ip measured upto 24 hrs by LC-MS/MS analysis; format: ADME, organism-based; design: time < 24 hrs, dose 60 mg/kg, route ip; conditions: in vivo
[7] = Toxicity in Balb/c nude mouse xenografted with human BXPC-3 cells assessed as effect on body weight at 30 to 60 mg/kg, ip administered daily for 30 days; format: organism-based; conditions: in vivo, 720 h, dose 30-60 mg/kg, time 30 day
BXPC-3 [8] = test: Antiproliferative activity against human BXPC-3 cells assessed as inhibition of cell proliferation incubated for 6 days by CCK8 assay; format: functional, cell-based; conditions: time 6.0 day
BXPC-3 [9] = test: Inhibition of cell proliferation in human BXPC-3 cells assessed as decrease in c-Myc protein level at 5 uM incubated for 48 hrs by IHC analysis; format: functional, cell-based
BXPC-3 [10] = test: Induction of apoptosis in human BXPC-3 cells assessed as early apoptotic cells at 5 uM incubated for 48 hrs by Annexin V-FITC/PI staining based flow cytometric analysis (reference value: 3.28 %); format: functional
BXPC-3 [11] = test: Induction of apoptosis in human BXPC-3 cells assessed as early apoptotic cells at 2.5 uM incubated for 48 hrs by Annexin V-FITC/PI staining based flow cytometric analysis (reference value: 3.28 %); format: functional
[12] = AUC(0 to infinity) in ICR mouse at 60 mg/kg, ip measured upto 24 hrs by LC-MS/MS analysis; format: ADME, organism-based; design: time < 24 hrs, dose 60 mg/kg, route ip; conditions: in vivo
MDA-MB-231 [13] = test: Induction of cell cycle arrest in human MDA-MB-231 cells assessed as accumulation of cells at G0/G1 phase at 1 to 5 uM incubated for 48 hrs by flow cytometric analysis; format: functional, cell-based; conditions: dose 1-5 µM
BXPC-3 [14] = test: Induction of apoptosis in human BXPC-3 cells assessed as early apoptotic cells at 1 uM incubated for 48 hrs by Annexin V-FITC/PI staining based flow cytometric analysis (reference value: 3.28 %); format: functional
BXPC-3 [15] = test: Induction of apoptosis in human BXPC-3 cells assessed as necrotic cells at 1 uM incubated for 48 hrs by Annexin V-FITC/PI staining based flow cytometric analysis (reference value: 1.65 %); format: functional
MDA-MB-231 [16] = test: Inhibition of cell proliferation in human MDA-MB-231 cells assessed as decrease in c-Myc protein level at 5 uM incubated for 48 hrs by IHC analysis; format: functional, cell-based
[17] = Tmax in ICR mouse at 60 mg/kg, ip measured upto 24 hrs by LC-MS/MS analysis; format: ADME, organism-based; conditions: in vivo
Mus musculus = test: In vivo inhibition of EZH2 in Balb/c nude mouse xenografted with human BXPC-3 cells assessed as reduction in H3K27me3 level in tumor at 60 mg/kg, ip administered daily for 30 days by IHC analysis; format: functional, organism-based; conditions: time 30.0 day
PLC-PRF-5 = test: Antiproliferative activity against human PLC-PRF-5 cells assessed as inhibition of cell proliferation incubated for 6 days by CCK8 assay; format: functional, cell-based; conditions: time 6.0 day
T-24 = test: Antiproliferative activity against human T24 cells assessed as inhibition of cell proliferation incubated for 6 days by CCK8 assay; format: functional, cell-based; conditions: time 6.0 day
[18] = target: T1, Histone-lysine N-methyltransferase EZH2 (Homo sapiens, UniProt Q15910); test: Inhibition of EZH2 (unknown origin) by radiometric assay
Target sequence in this assay (Q15910 whole entry): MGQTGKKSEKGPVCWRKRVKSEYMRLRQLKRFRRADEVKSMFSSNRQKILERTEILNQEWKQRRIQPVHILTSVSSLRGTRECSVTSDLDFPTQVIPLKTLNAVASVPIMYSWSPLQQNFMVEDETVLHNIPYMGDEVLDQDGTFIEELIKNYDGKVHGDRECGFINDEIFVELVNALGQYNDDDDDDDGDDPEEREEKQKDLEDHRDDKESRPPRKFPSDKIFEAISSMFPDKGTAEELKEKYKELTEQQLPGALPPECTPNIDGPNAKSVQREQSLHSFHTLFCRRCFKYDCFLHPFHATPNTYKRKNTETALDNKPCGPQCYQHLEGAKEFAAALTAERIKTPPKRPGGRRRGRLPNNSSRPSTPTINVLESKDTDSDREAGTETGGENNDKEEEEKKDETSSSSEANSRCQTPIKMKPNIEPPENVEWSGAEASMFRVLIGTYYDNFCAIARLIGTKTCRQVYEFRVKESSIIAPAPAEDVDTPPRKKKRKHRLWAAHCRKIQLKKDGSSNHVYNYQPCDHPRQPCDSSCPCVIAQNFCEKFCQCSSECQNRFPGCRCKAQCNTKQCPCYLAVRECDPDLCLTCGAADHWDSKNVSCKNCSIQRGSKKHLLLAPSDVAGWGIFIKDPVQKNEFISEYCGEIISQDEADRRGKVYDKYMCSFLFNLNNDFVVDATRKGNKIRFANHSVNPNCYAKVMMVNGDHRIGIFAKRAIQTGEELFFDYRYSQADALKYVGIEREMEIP

MDA-MB-231 [19] = test: Induction of apoptosis in human MDA-MB-231 cells assessed as viable cells at 5 uM incubated for 48 hrs by Annexin V-FITC/PI staining based flow cytometric analysis (reference value: 97.63%); format: functional; conditions: read-out: Activity
[20] = Protein binding in mouse plasma assessed as bound fraction at 2 uM incubated for 5 hrs by equilibrium based LC-MS/MS analysis; format: ADME, cell-free; conditions: read-out: PPB (converted)
A549 = test: Antiproliferative activity against human A549 cells assessed as inhibition of cell proliferation incubated for 6 days by CCK8 assay; format: functional, cell-based; conditions: time 6.0 day
MDA-MB-231 [21] = test: Induction of apoptosis in human MDA-MB-231 cells assessed as early apoptotic cells at 2.5 uM incubated for 48 hrs by Annexin V-FITC/PI staining based flow cytometric analysis (reference value: 0.69%); format: functional
BXPC-3 [22] = test: Induction of apoptosis in human BXPC-3 cells assessed as viable cells at 5 uM incubated for 48 hrs by Annexin V-FITC/PI staining based flow cytometric analysis (reference value: 90.70%); format: functional; conditions: read-out: Activity
MDA-MB-231 [23] = test: Induction of apoptosis in human MDA-MB-231 cells assessed as late apoptotic cells at 2.5 uM incubated for 48 hrs by Annexin V-FITC/PI staining based flow cytometric analysis (reference value: 1.06%); format: functional
MDA-MB-231 [24] = test: Induction of apoptosis in human MDA-MB-231 cells assessed as early apoptotic cells at 1 uM incubated for 48 hrs by Annexin V-FITC/PI staining based flow cytometric analysis (reference value: 0.69%); format: functional
BXPC-3 [25] = test: Induction of cell cycle arrest in human BXPC-3 cells assessed as accumulation of cells at G0/G1 phase at 1 to 5 uM incubated for 48 hrs by flow cytometric analysis; format: functional, cell-based; conditions: dose 1-5 µM
BXPC-3 [26] = test: Induction of apoptosis in human BXPC-3 cells assessed as late apoptotic cells at 2.5 uM incubated for 48 hrs by Annexin V-FITC/PI staining based flow cytometric analysis (reference value: 4.38 %); format: functional
BXPC-3 [27] = test: Antitumor activity against human BXPC-3 cells xenografted in Balb/c nude mouse assessed as reduction in tumor growth at 60 mg/kg, ip administered daily for 30 days; format: functional, organism-based; conditions: time 30.0 day
[28] = target: T1, Histone-lysine N-methyltransferase EZH2; test: Inhibition of EZH2 in human MDA-MB-231 cells assessed as increase in H3K27ac level at 5 uM by fluorescence based analysis; format: cell-based
Target sequence in this assay (Q15910 whole entry, looked up): as the sequence (Q15910 whole entry) above

MDA-MB-231 [29] = test: Induction of apoptosis in human MDA-MB-231 cells assessed as necrotic cells at 5 uM incubated for 48 hrs by Annexin V-FITC/PI staining based flow cytometric analysis (reference value: 0.63%); format: functional
[30] = target: Bromodomain-containing protein 3 (Homo sapiens, UniProt Q15059); test: Inhibition of BRD3-BD1/2 (unknown origin) by HTRF analysis
[31] = target: T1, Histone-lysine N-methyltransferase EZH2; test: Inhibition of EZH2 in human MDA-MB-231 cells assessed as decrease in H3K27me3 level at 5 uM by fluorescence based analysis; format: cell-based
Target sequence in this assay (Q15910 whole entry, looked up): as the sequence (Q15910 whole entry) above

[32] = MRT(0 to infinity) in ICR mouse at 60 mg/kg, ip measured upto 24 hrs by LC-MS/MS analysis; format: ADME, organism-based; conditions: in vivo

Chain of Bromodomain-containing protein 3 (Q15059 whole entry): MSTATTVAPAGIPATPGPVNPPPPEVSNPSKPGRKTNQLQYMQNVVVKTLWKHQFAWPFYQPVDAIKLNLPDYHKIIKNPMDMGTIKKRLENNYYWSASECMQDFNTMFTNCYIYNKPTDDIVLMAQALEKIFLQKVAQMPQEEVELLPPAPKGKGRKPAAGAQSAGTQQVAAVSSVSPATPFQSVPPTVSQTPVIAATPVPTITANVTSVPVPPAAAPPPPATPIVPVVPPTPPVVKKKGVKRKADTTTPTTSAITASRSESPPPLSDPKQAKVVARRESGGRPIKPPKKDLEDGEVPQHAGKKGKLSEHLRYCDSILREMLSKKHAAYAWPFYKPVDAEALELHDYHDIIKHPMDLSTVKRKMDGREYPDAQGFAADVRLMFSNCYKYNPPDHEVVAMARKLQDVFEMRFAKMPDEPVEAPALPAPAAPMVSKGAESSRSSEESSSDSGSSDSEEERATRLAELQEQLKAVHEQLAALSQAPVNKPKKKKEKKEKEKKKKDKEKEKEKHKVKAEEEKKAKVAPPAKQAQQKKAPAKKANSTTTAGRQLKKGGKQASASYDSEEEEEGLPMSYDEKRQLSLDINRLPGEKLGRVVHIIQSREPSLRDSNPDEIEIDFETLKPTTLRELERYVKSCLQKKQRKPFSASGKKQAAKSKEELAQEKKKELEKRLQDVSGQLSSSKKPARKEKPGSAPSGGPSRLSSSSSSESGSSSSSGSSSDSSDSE

Compound: CCC(C)n1ccc2c(C(=O)NCc3c(C)cc(C)[nH]c3=O)cc(-c3cn(C)c(=O)c4[nH]ccc34)cc21 (stereo unspecified)
- viability at 2.5 µM (MDA-MB-231 [1]): 87.8%
- inhibition (BXPC-3 [2]): Active
- IC50 [3]: 35 nM
- Activity (MDA-MB-231 [4]): Active
- Cmax [5]: 2960 ng/mL
- AUC(0-t) at 24 h [6]: 1820 ng·h/mL
- Activity [7]: Non-Toxic
- Activity (BXPC-3 [8]): Active
- inhibition (BXPC-3 [9]): Active
- Activity (BXPC-3 [10]): 10.73%
- Activity (BXPC-3 [11]): 9.2%
- AUC(0-inf) [12]: 2000 ng·h/mL
- Activity (MDA-MB-231 [13]): Active
- Activity (BXPC-3 [14]): 6.84%
- Activity (BXPC-3 [15]): 2.94%
- inhibition (MDA-MB-231 [16]): Active
- Tmax [17]: 4.98 min
- inhibition (Mus musculus): Active
- Activity (PLC-PRF-5): Active
- Activity (T-24): Active
- IC50 [18]: 2.3 nM
- viability at 5 µM (MDA-MB-231 [19]): 81.1%
- fraction unbound at 5 h, 2 µM [20]: 0.009
- Activity (A549): Active
- Activity (MDA-MB-231 [21]): 8.53%
- viability at 5 µM (BXPC-3 [22]): 62.1%
- Activity (MDA-MB-231 [23]): 2.29%
- Activity (MDA-MB-231 [24]): 2.87%
- Activity (BXPC-3 [25]): Active
- Activity (BXPC-3 [26]): 16.95%
- Activity (BXPC-3 [27]): Active
- inhibition [28]: Active
- Activity (MDA-MB-231 [29]): 1.91%
- IC50 [30]: 32 nM
- inhibition [31]: Active
- MRT inf [32]: 6.94 h

From ChEMBL document CHEMBL5316343, “Design, Synthesis, and Biological Evaluation of a Potent Dual EZH2-BRD4 Inhibitor for the Treatment of Some Solid Tumors” (J Med Chem, 2023)
